Key:
[1] = target: T1, human TLR2 (Pam2CSK4, TLR2/6 agonist) in HEK-Blue hTLR2 cells (Homo sapiens, UniProt O60603); test: HEK-Blue hTLR2 antagonism assay (SEAP reporter) with Pam2CSK4 as agonist; format: cell-based; conditions: 2 h compound pre-incubation, approx. 3×EC50 Pam2CSK4, 18 h, SEAP OD 655 nm, background subtracted
T1 construct: host or cells: HEK-Blue hTLR2 (HEK-293)
Experimental: (§1) Synthetic diacylated lipoprotein (Pam2CSK4, TLR2/6 agonist) and synthetic triacylated lipoprotein (Pam3CSK4, TLR1/2 agonist) were obtained from InvivoGen and were dissolved in endotoxin-free water to a concentration 1 mg/mL, vortexed until complete solubilization, and stored in aliquots at −20° C. Prior to addition to cells, an aliquot of the dissolved ligand was vortexed shortly and then was diluted in medium to 25 ng/mL Pam2CSK4 or 1000 ng/mL Pam3CSK4. The EC50 of the agonists for each assay run was determined by using 3-fold dilutions of each agonist from the following starting concentrations: 5 ng/mL for Pam2CSK4, and 200 ng/mL for Pam3CSK4.
(§2) Test compounds were solubilized fresh to 10-20 mM stocks in DMSO and sonicated for 5-10 minutes in a water bath sonicator. Serial dilutions were prepared in DMSO, and then diluted in medium. The final concentration of DMSO used in the assay was 1%.
(§3) HEK-Blue hTLR2 reporter cells (InvivoGen) are HEK-293 cells stably expressing both the human TLR2 gene and a secreted embryonic alkaline phosphatase (SEAP) reporter construct downstream of NFκB promotor sites. HEK-Blue hTLR2 reporters were cultured according to manufacturer's protocol using Dulbecco's Modified Eagle Medium (DMEM; Gibco) containing 1× GlutaMax (Gibco), 10% heat-inactivated Fetal Bovine Serum (Gibco), Pen-Strep (50 U/mL penicillin, 50 μg/mL streptomycin, Gibco), 100 μg/mL Normocin (InvivoGen), and the selective antibiotic, 1× HEK-Blue Selection (InvivoGen). Quanti-Blue reagent (InvivoGen) for detection and quantification of secreted alkaline phosphatase was dissolved in 100 mL of endotoxin-free water, warmed to 37° C. for 30 minutes and then filtered using a 0.2 μm membrane.
(§4) On day 1, 50 μL of each test compound dilution in duplicates or a vehicle control was added to each well of a 96-well plate followed by addition of 150 μL of HEK-Blue hTLR2 cell suspension (1×10^5 cells/well) and incubated at 37° C./5% CO2 for 2 h. Next, 50 μL of an approximate 3×EC50 concentration of each agonist (Pam2CSK4 or Pam3CSK4) was added to the wells containing test compounds or the vehicle control. The plates were then incubated at 37° C./5% CO2 for 18 h. For each assay run, non-treated HEK-Blue hTLR2 cells were treated with serial dilutions of agonists to determine EC50 values for the respective run.
(§5) On day 2, secreted alkaline phosphatase (SEAP) activity was detected in cell culture supernatants. In brief, 20 μL was collected from each well and transferred to a 96-well plate. Next, 200 μL of Quanti-Blue detection reagent was added to each well. Plates were incubated at room temperature for 15 min and SEAP activity was assessed by spectrophotometer OD reading at 655 nm. […] The activities of the compounds against Pam2CSK4 and Pam3CSK4 are presented as IC50 values for the response from cells treated with agonists with the background signal subtracted.

[2] = target: T2, human TLR2 (Pam3CSK4, TLR1/2 agonist) in HEK-Blue hTLR2 cells (Homo sapiens, UniProt O60603); test: HEK-Blue hTLR2 antagonism assay (SEAP reporter) with Pam3CSK4 as agonist; format: cell-based; conditions: 2 h compound pre-incubation, approx. 3×EC50 Pam3CSK4, 18 h, SEAP OD 655 nm, background subtracted
T2 construct: host or cells: HEK-Blue hTLR2 (HEK-293)
T2 sequence (O60603 19-784 limits assumed): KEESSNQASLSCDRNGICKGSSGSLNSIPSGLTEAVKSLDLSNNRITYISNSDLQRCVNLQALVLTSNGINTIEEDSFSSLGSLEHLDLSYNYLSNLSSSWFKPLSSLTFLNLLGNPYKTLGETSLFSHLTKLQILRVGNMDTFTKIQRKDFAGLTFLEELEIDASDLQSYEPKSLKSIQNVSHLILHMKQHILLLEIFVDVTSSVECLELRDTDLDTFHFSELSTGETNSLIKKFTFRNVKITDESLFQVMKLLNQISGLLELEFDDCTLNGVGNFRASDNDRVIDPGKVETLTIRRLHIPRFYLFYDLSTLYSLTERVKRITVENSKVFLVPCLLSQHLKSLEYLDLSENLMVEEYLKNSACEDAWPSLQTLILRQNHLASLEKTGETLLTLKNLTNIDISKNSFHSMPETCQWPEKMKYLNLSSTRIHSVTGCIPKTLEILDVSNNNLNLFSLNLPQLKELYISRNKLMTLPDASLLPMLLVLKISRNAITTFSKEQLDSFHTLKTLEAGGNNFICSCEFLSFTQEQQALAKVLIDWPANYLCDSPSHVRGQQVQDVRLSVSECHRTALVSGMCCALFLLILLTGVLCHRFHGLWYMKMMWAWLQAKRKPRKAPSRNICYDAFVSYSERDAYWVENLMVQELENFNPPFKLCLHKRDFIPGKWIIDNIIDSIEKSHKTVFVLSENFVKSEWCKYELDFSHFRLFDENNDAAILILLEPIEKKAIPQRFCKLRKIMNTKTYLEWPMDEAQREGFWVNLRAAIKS
Experimental: as §1, §2, §3, §4, §5

T1 sequence (O60603 19-784 limits assumed): as above

Compound | IC50 [1] | IC50 [2]
COc1cc(/C=C/c2ccc3c(c2)CCCO3)cc(C=O)c1O [compound 67, (E)-5-(2-(chroman-6-yl)vinyl)-2-hydroxy-3-methoxybenzaldehyde] | 1.7 µM | 1.2 µM
O=Cc1cc(/C=C/c2ccc(N3CCCCC3)cc2)cc(F)c1O [compound 70, (E)-3-fluoro-2-hydroxy-5-(4-(piperidin-1-yl)styryl)benzaldehyde] | 0.9 µM | 0.4 µM
O=Cc1c(O)cc(/C=C/c2ccc(N3CCCCC3)cc2)cc1F [compound 71, (E)-2-fluoro-6-hydroxy-4-(4-(piperidin-1-yl)styryl)benzaldehyde] | 13.7 µM | 2.5 µM
CCN1CCN(c2ccc(/C=C/c3cc(O)c(C=O)c(F)c3)cc2)CC1 [compound 72, (E)-4-(4-(4-ethylpiperazin-1-yl)styryl)-2-fluoro-6-hydroxybenzaldehyde] | 8.2 µM | 11.2 µM
COc1cc(-c2cc3c(s2)CCN(C(=O)C2CC2)C3)cc(/C=C/C(=O)c2ccccc2)c1O [compound 73, (E)-3-(5-(5-(cyclopropanecarbonyl)-4,5,6,7-tetrahydrothieno[3,2-c]pyridin-2-yl)-2-hydroxy-3-methoxyphenyl)-1-phenylprop-2-en-1-one] | 4.5 µM | 4.8 µM
Oc1c(F)cc(/C=C/c2ccc(N3CCCC3)cc2)cc1/C=N/Nc1ccccc1 [compound 79, 2-fluoro-6-((E)-(2-phenylhydrazono)methyl)-4-((E)-4-(pyrrolidin-1-yl)styryl)phenol] | 4.4 µM | 6 µM
O=S(=O)(N/N=C/c1cc(/C=C/c2ccc(N3CCCC3)cc2)cc(F)c1O)c1ccccc1 [compound 81, N′-((E)-3-fluoro-2-hydroxy-5-((E)-4-(pyrrolidin-1-yl)styryl)benzylidene)benzenesulfonohydrazide] | 16.4 µM | 13.2 µM
Oc1c(F)cc(/C=C/c2ccc(N3CCCC3)cc2)cc1/C=N/Oc1ccccc1 [compound 82, (E)-3-fluoro-2-hydroxy-5-((E)-4-(pyrrolidin-1-yl)styryl)benzaldehyde O-phenyl oxime] | 2.1 µM | 2.1 µM
O=Cc1cc(/C=C/c2ccc(N3CCCC3)nc2)cc(F)c1O [compound 86, (E)-3-fluoro-2-hydroxy-5-(2-(6-(pyrrolidin-1-yl)pyridin-3-yl)vinyl)benzaldehyde] | 3.8 µM | 4.1 µM
O=Cc1cc(/C=C/c2ccc(N3CCCC3)cn2)cc(F)c1O [compound 87, (E)-3-fluoro-2-hydroxy-5-(2-(5-(pyrrolidin-1-yl)pyridin-2-yl)vinyl)benzaldehyde] | 3.9 µM | 3.3 µM
O=C1CN(/N=C/c2cc(/C=C/c3ccc(N4CCCC4)cc3)cc(F)c2O)C(=O)N1 [compound 88, 1-(((E)-3-fluoro-2-hydroxy-5-((E)-4-(pyrrolidin-1-yl)styryl)benzylidene)amino)imidazolidine-2,4-dione] | 11.2 µM | 7.9 µM
CCO/N=C/c1cc(/C=C/c2ccc(N3CCCC3)cc2)cc(F)c1O [compound 89, (E)-3-fluoro-2-hydroxy-5-((E)-4-(pyrrolidin-1-yl)styryl)benzaldehyde O-ethyl oxime] | 29.5 µM | 29.6 µM
Oc1c(F)cc(/C=C/c2ccc(N3CCCC3)cc2)cc1/C=N/N1CCN(C2CC2)CC1 [compound 92, 2-((E)-((4-cyclopropylpiperazin-1-yl)imino)methyl)-6-fluoro-4-((E)-4-(pyrrolidin-1-yl)styryl)phenol] | 26.6 µM | 32.3 µM
Oc1c(F)cc(/C=C/c2ccc(N3CCCC3)cc2)cc1/C=N/N1CCOCC1 [compound 94, 2-fluoro-6-((E)-(morpholinoimino)methyl)-4-((E)-4-(pyrrolidin-1-yl)styryl)phenol] | 2.9 µM | 1.4 µM

Further molecules by falling IC50 [1], results first:

IC50 [1] | IC50 [2] | Compound
36.7 µM | 88.9 µM | N=C(N)N/N=C/c1cc(/C=C/c2ccc(N3CCCC3)cc2)cc(F)c1O [compound 83, 2-((E)-3-fluoro-2-hydroxy-5-((E)-4-(pyrrolidin-1-yl)styryl)benzylidene)hydrazine-1-carboximidamide]
30.6 µM | 82.1 µM | Oc1c(F)cc(/C=C/c2ccc(N3CCCC3)cc2)cc1CNC1CC1 [compound 91, (E)-2-((cyclopropylamino)methyl)-6-fluoro-4-(4-(pyrrolidin-1-yl)styryl)phenol]
28.4 µM | 14.8 µM | O=C(N/N=C/c1cc(/C=C/c2ccc(N3CCCC3)cc2)cc(F)c1O)c1ccccc1 [compound 80, N′-((E)-3-fluoro-2-hydroxy-5-((E)-4-(pyrrolidin-1-yl)styryl)benzylidene)benzohydrazide]
24.5 µM | 3.2 µM | CCN1CCN(/N=C/c2cc(/C=C/c3ccc(N4CCCC4)cc3)cc(F)c2O)CC1 [compound 93, 2-((E)-((4-ethylpiperazin-1-yl)imino)methyl)-6-fluoro-4-((E)-4-(pyrrolidin-1-yl)styryl)phenol]
6.3 µM | 7 µM | COc1cc(-c2cc3c(s2)CCN(C(=O)C2CC2)C3)cc(C(=O)/C=C/c2ccccc2)c1O [compound 74, (E)-1-(5-(5-(cyclopropanecarbonyl)-4,5,6,7-tetrahydrothieno[3,2-c]pyridin-2-yl)-2-hydroxy-3-methoxyphenyl)-3-phenylprop-2-en-1-one]
5.4 µM | 8.5 µM | OCc1cc(/C=C/c2ccc(N3CCCC3)cc2)cc(F)c1O [compound 90, (E)-2-fluoro-6-(hydroxymethyl)-4-(4-(pyrrolidin-1-yl)styryl)phenol]
4.5 µM | 1.9 µM | C[N+]1([O-])CCN(/N=C/c2cc(/C=C/c3ccc(N4CCCC4)cc3)cc(F)c2O)CC1 [compound 85, 4-(((E)-3-fluoro-2-hydroxy-5-((E)-4-(pyrrolidin-1-yl)styryl)benzylidene)amino)-1-methylpiperazine 1-oxide]
3.4 µM | 3.1 µM | COc1cc(/C=C/C(=O)c2ccccc2)cc(C(=O)/C=C/c2ccccc2)c1O [compound 84, (E)-3-(3-cinnamoyl-4-hydroxy-5-methoxyphenyl)-1-phenylprop-2-en-1-one]
1.6 µM | 1.3 µM | O=Cc1cc(/C=C/c2ccc3c(c2)CCCO3)cc(F)c1O [compound 68, (E)-5-(2-(chroman-6-yl)vinyl)-3-fluoro-2-hydroxybenzaldehyde]
1.4 µM | 1.1 µM | CC(=O)N/N=C/c1cc(/C=C/c2ccc(N3CCCC3)cc2)cc(F)c1O [compound 77, N′-((E)-3-fluoro-2-hydroxy-5-((E)-4-(pyrrolidin-1-yl)styryl)benzylidene)acetohydrazide]
1.2 µM | 1.3 µM | Oc1c(F)cc(/C=C/c2ccc(N3CCCC3)cc2)cc1C1OCCCO1 [compound 75, (E)-2-(1,3-dioxan-2-yl)-6-fluoro-4-(4-(pyrrolidin-1-yl)styryl)phenol]
1 µM | 0.9 µM | Oc1c(F)cc(/C=C/c2ccc(N3CCCC3)cc2)cc1/C=N/c1ccccc1 [compound 78, 2-fluoro-6-((E)-(phenylimino)methyl)-4-((E)-4-(pyrrolidin-1-yl)styryl)phenol]
0.9 µM | 0.3 µM | O=Cc1cc(/C=C/c2ccc(OCC3CC3)cc2)cc(F)c1O [compound 66, (E)-5-(4-(cyclopropylmethoxy)styryl)-3-fluoro-2-hydroxybenzaldehyde]
0.7 µM | 0.6 µM | COc1cc(/C=C/c2ccc(N3CCCCC3)cc2)cc(C=O)c1O [compound 69, (E)-2-hydroxy-3-methoxy-5-(4-(piperidin-1-yl)styryl)benzaldehyde]
0.4 µM | 0.5 µM | CN1CCN(/N=C/c2cc(/C=C/c3ccc(N4CCCC4)cc3)cc(F)c2O)CC1 [compound 76, 2-fluoro-6-((E)-((4-methylpiperazin-1-yl)imino)methyl)-4-((E)-4-(pyrrolidin-1-yl)styryl)phenol]

— patent publication US11345713B2, “Compounds as modulators of TLR2 signaling” (Neuropore Therapies, inc., priority 2018, dated 2022)
